Data from US20210322376A1, “METHODS FOR REDUCING THE RISK OF DIABETES IN PATIENTS BEING TREATED FOR HIGH CHOLESTEROL-RELATED ILLNESSES” (Esperion Therapeutics, Inc., priority 2018, published 2021).

Legend:
[1] = Muscle-related adverse events with add-on ETC-1002 therapy to statin therapy; type: in vivo
Description: In some aspects, the subject experiences an adverse event when on one or more statins at the lowest FDA approved dose, said adverse events being selected form the group consisting of muscle-related pain, aches, weakness, and cramping.

[2] = Example 1: bempedoic acid vs placebo, patients with a history of diabetes on MTD statin, 52 weeks (HbA1c, fasting glucose); type: in vivo, human; settings: background MTD statin (50% high intensity), FIG. 2 and FIG. 3
Description: (§1) Patients with diabetes were identified primarily through medical history and/or baseline lab results. No entry restrictions were placed on these patients with the exception of having a HbA1c <10% during screening. The use of background concomitant medications related to diabetes treatment was captured at the study outset. Changes in all concomitant medications were tracked during the treatment phase. No restrictions were placed on changes in diabetes medications (stopping, starting, or changing dose) during the trial.
2230 total patients were receiving background MTD statin (50% high intensity) for 52 weeks. […] Patients were treated with bempedoic acid or placebo. The baseline HbA1c levels for patients receiving bempedoic acid was 6.85%, and the baseline HbA1c levels for patients receiving placebo was 6.89%. The baseline fasting glucose levels for patients receiving bempedoic acid was 131.4 mg/dl. The baseline fasting glucose levels for patients receiving placebo was 130.6 mg/dl. Changes in HbA1c levels were measured at week 12 and week 52 and changes in fasting glucose levels were measured at weeks 4, 8, 12, 24, and 36 and 52.

[3] = Thorough QT/QTc (TQT) study of ETC-1002; type: in vivo
[4] = Example 3: bempedoic acid vs placebo, statin-intolerant patients on background ezetimibe, 12 weeks; type: in vivo, human; settings: statin intolerant (31% low/very low dose statin), FIG. 6 and FIG. 7
Description: as §1
269 total patients with statin intolerance (31% low/very dose statin) were treated for 12 weeks; all patients on background ezetimibe therapy. […] Patients were treated with bempedoic acid or placebo. The baseline HbA1c levels for patients receiving bempedoic acid was 6.66%, and the baseline HbA1c levels for patients receiving placebo was 6.76%. The baseline fasting glucose levels for patients receiving bempedoic acid was 133.7 mg/dl. The baseline fasting glucose levels for patients receiving placebo was 133.4 mg/dl. Changes in HbA1c levels were measured at week 12, and changes in fasting glucose levels were measured at weeks 4, 8, and 12.

[5] = Pharmacokinetics of ETC-1002; settings: human, in vivo
Procedure: In some aspects, the methods herein provide for treating cardiovascular disease and/or reducing the risk of cardiovascular disease in a subject comprising administering an amount of a composition comprising ETC-1002 which is rapidly absorbed having a Tmax at less than about 4 hours.

[6] = Example 2: bempedoic acid vs placebo, statin-intolerant patients with a history of diabetes, 24 weeks; type: in vivo, human; settings: statin intolerant (8% very low dose statin), FIG. 4 and FIG. 5
Description: as §1
345 total patients with statin intolerance (8% very low dose statin) were treated for 24 weeks. […] Patients were treated with bempedoic acid or placebo. The baseline HbA1c levels for patients receiving bempedoic acid was 6.91%, and the baseline HbA1c levels for patients receiving placebo was 7.12%. The baseline fasting glucose levels for patients receiving bempedoic acid was 130.7 mg/dl. The baseline fasting glucose levels for patients receiving placebo was 139.8 mg/dl. Changes in HbA1c levels were measured at week 12 and week 24 and changes in fasting glucose levels were measured at weeks 4, 12, and 24.

[7] = Cumulative data of Examples 1-4: new onset or worsening of diabetes; type: in vivo, human; settings: patients taking statins plus bempedoic acid; statins plus placebo 5.6%

CC(C)(CCCCCC(O)CCCCCC(C)(C)C(=O)O)C(=O)O [ETC-1002, 8-hydroxy-2,2,14,14 tetramethylpentadecanedioic acid]
muscle-related adverse events that began or increased during statin therapy [1]: significantly lowered or even resolved | incidence of diabetes-related phenotypes, worsening of diabetes, new onset of diabetes [2]: reduces the incidence of diabetes-related phenotypes, worsening of diabetes, and new onset of diabetes relative to placebo | QTc or QT/QTc prolongation ([3]; TQT study): does not prolong QTc or QT/QTc | heart rate and PR and QRS intervals ([3]; add-on ETC-1002 therapy): does not affect subject heart rate and PR and QRS intervals | incidence of diabetes-related phenotypes, worsening of diabetes, new onset of diabetes [4]: reduces the incidence of diabetes-related phenotypes, worsening of diabetes, and new onset of diabetes relative to placebo | Tmax ([5]; rapidly absorbed): < 4 h | half-life ([5]; systemic exposure, AUCtau,ss): 15 to 27 h | incidence of diabetes-related phenotypes, worsening of diabetes, new onset of diabetes [6]: reduces incidence of diabetes-related phenotypes, worsening of diabetes, and new onset of diabetes relative to placebo | frequency of new onset or worsening of diabetes and diabetes-related symptoms [7]: 4%
